In publication PMC6345968, “Structural basis for species-selective targeting of Hsp90 in a pathogenic fungus” (Nature Communications, 2019):
Read-outs that look alike come from different tables or passages of the source.

What was measured:
[1] = target: T1, Hsp90 in C. albicans (SC5314) lysate (Candida albicans, UniProt P46598); test: biochemical; format: binding; details: for Ratio re. GdA: EC50 relative to GdA; for FP signal: raw; for EC50: not normalized, oxime panel experiment 220817
T1 construct: endogenous in cells; host or cells: C. albicans SC5314 whole-cell lysate
T1 sequence (P46598 whole entry): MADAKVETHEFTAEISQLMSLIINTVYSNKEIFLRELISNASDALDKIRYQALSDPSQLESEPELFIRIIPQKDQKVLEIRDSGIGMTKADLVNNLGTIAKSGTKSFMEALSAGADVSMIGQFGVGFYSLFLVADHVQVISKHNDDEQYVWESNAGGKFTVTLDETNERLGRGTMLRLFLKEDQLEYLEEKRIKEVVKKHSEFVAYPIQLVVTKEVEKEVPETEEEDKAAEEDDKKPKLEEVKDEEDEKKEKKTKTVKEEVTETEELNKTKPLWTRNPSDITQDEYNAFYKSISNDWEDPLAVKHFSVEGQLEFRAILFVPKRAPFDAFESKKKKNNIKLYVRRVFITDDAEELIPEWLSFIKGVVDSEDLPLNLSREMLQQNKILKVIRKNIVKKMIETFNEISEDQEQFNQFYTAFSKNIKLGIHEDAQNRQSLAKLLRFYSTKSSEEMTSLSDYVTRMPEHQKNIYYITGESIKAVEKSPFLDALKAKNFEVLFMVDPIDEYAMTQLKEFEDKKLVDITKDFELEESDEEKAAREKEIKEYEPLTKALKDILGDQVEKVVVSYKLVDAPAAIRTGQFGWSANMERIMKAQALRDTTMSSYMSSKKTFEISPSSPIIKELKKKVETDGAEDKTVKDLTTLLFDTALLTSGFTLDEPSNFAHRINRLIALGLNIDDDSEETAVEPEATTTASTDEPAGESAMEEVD

Hsp90 in HEPG2 lysate = details: for FP signal (raw) / FP signal / EC50: HepG2 lysate; for FP signal: raw; for EC50: oxime panel experiment 220817
[2] = SC5314 lysate, 0.457 nM compound
[3] = SC5314 lysate, 1.372 nM compound
[4] = SC5314 lysate, 4.115 nM compound
[5] = SC5314 lysate, 12.346 nM compound
[6] = SC5314 lysate, 37.037 nM compound
[7] = SC5314 lysate, 111.111 nM compound
[8] = SC5314 lysate, 333.333 nM compound
[9] = SC5314 lysate, 1000 nM compound
[10] = SC5314 lysate, 3000 nM compound
[11] = ratio of GdA-normalized EC50s, human over fungal lysate
[12] = ratio of GdA-relative EC50 ratios, HepG2 over SC5314
[13] = EC50 / EC50 of GdA in HepG2 lysate
[14] = EC50 relative to GdA, HEPG2 lysate
[15] = HEPG2 lysate, log concentration 0.137354 (1.372 nM)
[16] = HEPG2 lysate, log concentration 0.61437 (4.115 nM)
[17] = HEPG2 lysate, log concentration 1.09153 (12.346 nM)
[18] = HEPG2 lysate, log concentration 1.56864 (37.037 nM)
[19] = HEPG2 lysate, log concentration 2.04576 (111.111 nM)
[20] = HEPG2 lysate, log concentration 2.52288 (333.333 nM)
[21] = HEPG2 lysate, log concentration 3 (1000 nM)
[22] = HEPG2 lysate, log concentration 3.47712 (3000 nM)
[23] = HEPG2 lysate, log concentration -0.340084 (0.457 nM)

CC1CC2OC2C=CC=CC(=NOCc2cccc(F)c2)Cc2c(Cl)c(O)cc(O)c2C(=O)O1 (mixture of isomers) [compound 227]
Ratio re. GdA ([1]; SC5314 lysate): 21.164
FP signal (raw) ([1]; SC5314 lysate, 0.457 nM): 194
FP signal relative to 0 nM [1, 2]: 0.9652
FP signal [1, 2]: 194
FP signal (raw) ([1]; SC5314 lysate, 1.372 nM): 195
FP signal relative to 0 nM [1, 3]: 0.9701
FP signal [1, 3]: 195
FP signal (raw) ([1]; SC5314 lysate, 4.115 nM): 190
FP signal relative to 0 nM [1, 4]: 0.9453
FP signal [1, 4]: 190
FP signal (raw) ([1]; SC5314 lysate, 12.346 nM): 193
FP signal relative to 0 nM [1, 5]: 0.9602
FP signal [1, 5]: 193
FP signal (raw) ([1]; SC5314 lysate, 37.037 nM): 178
FP signal relative to 0 nM [1, 6]: 0.8856
FP signal [1, 6]: 178
FP signal (raw) ([1]; SC5314 lysate, 111.111 nM): 162
FP signal relative to 0 nM [1, 7]: 0.806
FP signal [1, 7]: 162
FP signal (raw) ([1]; SC5314 lysate, 333.333 nM): 111
FP signal relative to 0 nM [1, 8]: 0.5522
FP signal [1, 8]: 111
FP signal (raw) ([1]; SC5314 lysate, 1000 nM): 56
FP signal relative to 0 nM [1, 9]: 0.2786
FP signal [1, 9]: 56
FP signal (raw) ([1]; SC5314 lysate, 3000 nM): 32
FP signal relative to 0 nM [1, 10]: 0.1592
FP signal [1, 10]: 32
EC50 ([1]; SC5314 lysate, read-out: EC50): 360 nM
HepG2/SC5314 [1, 11]: 1.415
HepG2/SC5314 [1, 12]: 1.415
Ratio rel. GdA (HepG2) (Hsp90 in HEPG2 lysate; [13]): 29.9414
Ratio rel. GdA (HepG2) (Hsp90 in HEPG2 lysate; [14]): 29.9414
FP signal, Fxn Control (Hsp90 in HEPG2 lysate; [15]): 0.976
FP signal, Fxn Control (Hsp90 in HEPG2 lysate; [16]): 0.9615
FP signal, Fxn Control (Hsp90 in HEPG2 lysate; [17]): 0.9712
FP signal, Fxn Control (Hsp90 in HEPG2 lysate; [18]): 0.9519
FP signal, Fxn Control (Hsp90 in HEPG2 lysate; [19]): 0.9038
FP signal, Fxn Control (Hsp90 in HEPG2 lysate; [20]): 0.7933
FP signal, Fxn Control (Hsp90 in HEPG2 lysate; [21]): 0.399
FP signal, Fxn Control (Hsp90 in HEPG2 lysate; [22]): 0.1923
FP signal, Fxn Control (Hsp90 in HEPG2 lysate; [23]): 0.976
FP signal (raw) (Hsp90 in HEPG2 lysate; 0.457 nM): 203
FP signal (Hsp90 in HEPG2 lysate; 0.457 nM compound): 203
FP signal (raw) (Hsp90 in HEPG2 lysate; 1.372 nM): 203
FP signal (Hsp90 in HEPG2 lysate; 1.372 nM compound): 203
FP signal (raw) (Hsp90 in HEPG2 lysate; 4.115 nM): 200
FP signal (Hsp90 in HEPG2 lysate; 4.115 nM compound): 200
FP signal (raw) (Hsp90 in HEPG2 lysate; 12.346 nM): 202
FP signal (Hsp90 in HEPG2 lysate; 12.346 nM compound): 202
FP signal (raw) (Hsp90 in HEPG2 lysate; 37.037 nM): 198
FP signal (Hsp90 in HEPG2 lysate; 37.037 nM compound): 198
FP signal (raw) (Hsp90 in HEPG2 lysate; 111.111 nM): 188
FP signal (Hsp90 in HEPG2 lysate; 111.111 nM compound): 188
FP signal (raw) (Hsp90 in HEPG2 lysate; 333.333 nM): 165
FP signal (Hsp90 in HEPG2 lysate; 333.333 nM compound): 165
FP signal (raw) (Hsp90 in HEPG2 lysate; 1000 nM): 83
FP signal (Hsp90 in HEPG2 lysate; 1000 nM compound): 83
FP signal (raw) (Hsp90 in HEPG2 lysate; 3000 nM): 40
FP signal (Hsp90 in HEPG2 lysate; 3000 nM compound): 40
EC50 (Hsp90 in HEPG2 lysate): 664 nM

CC1CC2OC2C=CC=CC(=NOCCN2CCCC2=O)Cc2c(Cl)c(O)cc(O)c2C(=O)O1 (centres unmarked) [KF58333, reference compound]
EC50 ([1]; EC50, SC5314 lysate): 6.86 nM
Ratio re. GdA ([1]; SC5314 lysate): 0.4034
FP signal (raw) ([1]; SC5314 lysate, 0.457 nM): 203
FP signal relative to 0 nM [1, 2]: 0.9807
FP signal [1, 2]: 203
FP signal (raw) ([1]; SC5314 lysate, 1.372 nM): 193
FP signal relative to 0 nM [1, 3]: 0.9324
FP signal [1, 3]: 193
FP signal (raw) ([1]; SC5314 lysate, 4.115 nM): 162
FP signal relative to 0 nM [1, 4]: 0.7826
FP signal [1, 4]: 162
FP signal (raw) ([1]; SC5314 lysate, 12.346 nM): 71
FP signal relative to 0 nM [1, 5]: 0.343
FP signal [1, 5]: 71
FP signal (raw) ([1]; SC5314 lysate, 37.037 nM): 44
FP signal relative to 0 nM [1, 6]: 0.2126
FP signal [1, 6]: 44
FP signal (raw) ([1]; SC5314 lysate, 111.111 nM): 38
FP signal relative to 0 nM [1, 7]: 0.1836
FP signal [1, 7]: 38
FP signal (raw) ([1]; SC5314 lysate, 333.333 nM): 35
FP signal relative to 0 nM [1, 8]: 0.1691
FP signal [1, 8]: 35
FP signal (raw) ([1]; SC5314 lysate, 1000 nM): 37
FP signal relative to 0 nM [1, 9]: 0.1787
FP signal [1, 9]: 37
FP signal (raw) ([1]; SC5314 lysate, 3000 nM): 36
FP signal relative to 0 nM [1, 10]: 0.1739
FP signal [1, 10]: 36
HepG2/SC5314 [1, 11]: 1.165
HepG2/SC5314 [1, 12]: 1.165
Ratio rel. GdA (HepG2) (Hsp90 in HEPG2 lysate; [13]): 0.4698
Ratio rel. GdA (HepG2) (Hsp90 in HEPG2 lysate; [14]): 0.4698
FP signal, Fxn Control (Hsp90 in HEPG2 lysate; [15]): 0.9604
FP signal, Fxn Control (Hsp90 in HEPG2 lysate; [16]): 0.9307
FP signal, Fxn Control (Hsp90 in HEPG2 lysate; [17]): 0.5149
FP signal, Fxn Control (Hsp90 in HEPG2 lysate; [18]): 0.302
FP signal, Fxn Control (Hsp90 in HEPG2 lysate; [19]): 0.2277
FP signal, Fxn Control (Hsp90 in HEPG2 lysate; [20]): 0.2129
FP signal, Fxn Control (Hsp90 in HEPG2 lysate; [21]): 0.2277
FP signal, Fxn Control (Hsp90 in HEPG2 lysate; [22]): 0.2475
FP signal, Fxn Control (Hsp90 in HEPG2 lysate; [23]): 0.9703
FP signal (raw) (Hsp90 in HEPG2 lysate; 0.457 nM): 196
FP signal (Hsp90 in HEPG2 lysate; 0.457 nM compound): 196
FP signal (raw) (Hsp90 in HEPG2 lysate; 1.372 nM): 194
FP signal (Hsp90 in HEPG2 lysate; 1.372 nM compound): 194
FP signal (raw) (Hsp90 in HEPG2 lysate; 4.115 nM): 188
FP signal (Hsp90 in HEPG2 lysate; 4.115 nM compound): 188
FP signal (raw) (Hsp90 in HEPG2 lysate; 12.346 nM): 104
FP signal (Hsp90 in HEPG2 lysate; 12.346 nM compound): 104
FP signal (raw) (Hsp90 in HEPG2 lysate; 37.037 nM): 61
FP signal (Hsp90 in HEPG2 lysate; 37.037 nM compound): 61
FP signal (raw) (Hsp90 in HEPG2 lysate; 111.111 nM): 46
FP signal (Hsp90 in HEPG2 lysate; 111.111 nM compound): 46
FP signal (raw) (Hsp90 in HEPG2 lysate; 333.333 nM): 43
FP signal (Hsp90 in HEPG2 lysate; 333.333 nM compound): 43
FP signal (raw) (Hsp90 in HEPG2 lysate; 1000 nM): 46
FP signal (Hsp90 in HEPG2 lysate; 1000 nM compound): 46
FP signal (raw) (Hsp90 in HEPG2 lysate; 3000 nM): 50
FP signal (Hsp90 in HEPG2 lysate; 3000 nM compound): 50
EC50 (Hsp90 in HEPG2 lysate): 10.4 nM
